In one data set the test system is HUVEC monolayers. Kind of data set: Inhibition of thrombin-stimulated macromolecule (HRP) permeability of HUVEC monolayers. Format: cell-based, human. The note with it: 1 U/ml thrombin; for IC50: Homo sapiens, 1 h, HUVEC on Transwells, 1 μM RP73401, 10 μM Motapizone, 1 mM SNP or 100 nM ANP, HRP passage after 60 min, read-out: Inhibition of SNP- or ANP-induced permeability, -log IC50 (converted); for Effect on thrombin-induced hyperpermeability (HRP passage): 1 μM RP73401 together with 10 μM Motapizone, 60 min. As for the experimental part: The procedure to measure macromolecule permeability of endothelial cell monolayers followed the method described by Langeler & van Hinsbergh (1988) with modifications. Human umbilical vein endothelial cells were isolated from umbilical cords according to standard procedures (Jaffe et al. 1973) and cultured in endothelial cell basal medium (EBM) supplemented with 2% FCS, 0.5 ng/ml VEGF, 10 ng/ml bFGF, 5 ng/ml EGF, 20 ng/ml Long R3 IGF-1, 0.2 μg/ml hydrocortisone, 1 μg/ml ascorbic acid, 22.5 μg/ml heparin, 50 μg/ml gentamicin, 50 ng/ml amphotericin B (EGM2 purchased from Promocell GmbH, Heidelberg, Germany). At confluency, cells were trypsinized and replated at 73000 cells per well on 3 μm polycarbonate filter Transwell inserts (Costar GmbH, Bodenheim, Germany) precoated with 10 μg cm^2−1 Fibronectin (Sigma, Taufkirchen, Germany). HUVECs were cultured in EGM2 (100 μl in the upper wells and 600 μl in the lower wells) over four days prior the experiments and medium was changed every other day. At the day of the experiment culture medium was replaced by M199 with 1% human serum albumin. Endothelial cells were preincubated with cyclic nucleotide modifiers (the selective PDE3 inhibitor motapizone, the selective PDE4 inhibitor RP73401, the cGMP generators ANP or SNP and PDE2 inhibitors) for 15 min. HUVECs were then stimulated with Thrombin (1 U ml^−1) (Sigma, Taufkichen, Germany) and horsh radish peroxidase (5 μg/ml) (Sigma, Taufkirchen, Germany) as the macromolecule marker protein was added to the upper wells. Following 1 h incubation time Transwells were removed and the activity of horsh radish peroxidase that penetrated the endothelial cell monolayer was measured in the lower wells with the 3,3′,5,5′-tetramethylbenzidine liquid substrate system from Sigma (Taufkirchen, Germany).
In parallel, compounds according to the invention can inhibit Thrombin-induced permeability of HUVEC monolayers for horsh radish peroxidase (HRP) as a macromolecule marker. […] The concentration-dependent inhibition of HRP permeability at different concentrations was assessed from the percent inhibition in the presence and absence of the PDE2 inhibitors and in the presence of 1 μM RP73401, 10 μM Motapizone and 100 nM ANP.
HUVEC cells on 3 μm polycarbonate filters (Transwells) were preincubated with 1 μM RP73401 (to block PDE4) and 10 μM Motapizone (to block PDE3), 1 mM SNP or 100 nM ANP and test sample over 15 min and then stimulated with 1 U/ml thrombin. HRP passage into the lower wells was assessed after 60 min.

No end group written: not given here.

As usually defined, the melting point is the temperature, or range, at which the solid turns liquid. In the case of `COc1ccc(Nc2nn3c(-c4ccc(OC)cc4)nnc3c3ccccc23)cc1` [Example 1, (4-Methoxyphenyl)-[3-(4-methoxyphenyl)-[1,2,4]triazolo[3,4-a]phthalazin-6-yl]-amine], the melting point is 301 to 304 °C.

As a reminder, the IC50 is the concentration that inhibits the measured activity by half. Take `COc1ccc(-c2nnc3c4ccccc4c(Nc4ccc(OC)c(OC)c4)nn23)cc1` [Example 2, (3,4-Dimethoxy-phenyl)-[3-(4-methoxy-phenyl)-[1,2,4]triazolo[3,4-a]phthalazin-6-yl]-amine]: the IC50 with HUVEC monolayers was 0.00794 to 0.316 µM.

Regarding `COc1ccc(-c2nnc3c4ccccc4c(Nc4cccc(OCc5ccccc5)c4)nn23)cc1` [Example 4, (3-Benzyloxyphenyl)-[3-(4-methoxyphenyl)-[1,2,4]triazolo[3,4-a]phthalazin-6-yl]-amine], the melting point turned out to be 260 °C. `COc1ccc(-c2nnc3c4ccccc4c(Nc4ccc(Cl)cc4)nn23)cc1` [Example 5, (4-Chlorophenyl)-[3-(4-methoxyphenyl)-[1,2,4]triazolo[3,4-a]phthalazin-6-yl]-amine] returned a melting point of 295 °C.

For the compound `COc1ccc(-c2ccc(Nc3nn4c(-c5ccc(OC)cc5)nnc4c4ccccc34)cc2)cc1` [Example 6, (4′-Methoxybiphenyl-4-yl)-[3-(4-methoxyphenyl)-[1,2,4]triazolo[3,4-a]phthalazin-6-yl]-amine], the concentration for half-maximal inhibition (IC50) with HUVEC monolayers is 0.00794 to 0.316 µM. The same measure, in the same setting: for `COc1ccc(-c2nnc3c4ccccc4c(Nc4cccc(OC)c4)nn23)cc1` [Example 7, (3-Methoxyphenyl)-[3-(4-methoxyphenyl)-[1,2,4]triazolo[3,4-a]phthalazin-6-yl]-amine] the value was 0.00794 to 0.316 µM. As to `COc1ccc(-c2nnc3c4ccccc4c(Nc4ccc(Oc5ccccc5)cc4)nn23)cc1` [Example 8, [3-(4-Methoxyphenyl)-[1,2,4]triazolo[3,4-a]phthalazin-6-yl]-(4-phenoxyphenyl)-amine], the melting point turned out to be 275.5 °C. For the same compound, the IC50 in the data set with HUVEC monolayers was 0.00794 to 0.316 µM. As for `COc1ccc(-c2nnc3c4ccccc4c(Nc4cccc(Oc5ccccc5)c4)nn23)cc1` [Example 9, [3-(4-Methoxyphenyl)-[1,2,4]triazolo[3,4-a]phthalazin-6-yl]-(3-phenoxyphenyl)-amine], in the data set on HUVEC monolayers, the IC50 is 0.00794 to 0.316 µM. With `COc1ccc(-c2nnc3c4ccccc4c(Nc4ccc(OCc5ccccc5)cc4)nn23)cc1` [Example 10, (4-Benzyloxyphenyl)-[3-(4-methoxyphenyl)-[1,2,4]triazolo[3,4-a]phthalazin-6-yl]-amine], the melting point is 297 °C. Besides, the IC50 in the data set with HUVEC monolayers was 0.00794 to 0.316 µM. Taken in the same sequence, the figures for `COc1ccc(-c2nnc3c4ccccc4c(Nc4ccc(C)cc4)nn23)cc1` [Example 11, [3-(4-Methoxyphenyl)-[1,2,4]triazolo[3,4-a]phthalazin-6-yl]-p-tolyl-amine] were 311 °C and 0.00794 to 0.316 µM. For `CCOc1ccc(Nc2nn3c(-c4ccc(OC)cc4)nnc3c3ccccc23)cc1` [Example 12, (4-Ethoxyphenyl)-[3-(4-methoxyphenyl)-[1,2,4]triazolo[3,4-a]phthalazin-6-yl]-amine], in that order: 297.5 °C and 0.00794 to 0.316 µM.

In the case of `COc1ccc(-c2nnc3c4ccccc4c(Nc4ccc(N5CCOCC5)cc4)nn23)cc1` [Example 13, [3-(4-Methoxyphenyl)-[1,2,4]triazolo[3,4-a]phthalazin-6-yl]-(4-morpholin-4-yl-phenyl)-amine], the melting point is 314 °C. Further, the IC50 with HUVEC monolayers was 0.00794 to 0.316 µM.

Turning to `COc1ccc(-c2nnc3c4ccccc4c(Nc4ccc(OC(F)(F)F)cc4)nn23)cc1` [Example 14, [3-(4-Methoxyphenyl)-[1,2,4]triazolo[3,4-a]phthalazin-6-yl]-(4-trifluoromethoxyphenyl)-amine], the melting point was determined as 300 °C. The IC50 in the data set on HUVEC monolayers is 0.00794 to 0.316 µM.

Regarding `COc1ccc(-c2nnc3c4ccccc4c(Nc4ccc(CC#N)cc4)nn23)cc1` [Example 15, {4-[3-(4-Methoxyphenyl)-[1,2,4]triazolo[3,4-a]phthalazin-6-ylamino]-phenyl}-acetonitrile], the melting point was found to be 295 °C. Also, the IC50 in the data set with HUVEC monolayers was 0.00794 to 0.316 µM. `COc1ccc(-c2nnc3c4ccccc4c(Nc4ccc(SC)cc4)nn23)cc1` [Example 16, [3-(4-Methoxyphenyl)-[1,2,4]triazolo[3,4-a]phthalazin-6-yl]-(4-methylsulfanylphenyl)-amine] had a melting point of 326 °C. The concentration for half-maximal inhibition (IC50) in the data set on HUVEC monolayers was 0.00794 to 0.316 µM.

For `c1ccc(Oc2ccc(-c3nnc4c5ccccc5c(Nc5ccc(N6CCOCC6)cc5)nn34)cc2)cc1` [Example 17, (4-Morpholin-4-yl-phenyl)-[3-(4-phenoxyphenyl)-[1,2,4]triazolo[3,4-a]phthalazin-6-yl]-amine], the melting point was 306 °C. For the same compound, the IC50 in the data set with HUVEC monolayers is 0.00794 to 0.316 µM. For `COc1ccc(-c2nnc3c4ccccc4c(Nc4ccc(N5CCN(C)CC5)cc4)nn23)cc1` [Example 18, [3-(4-Methoxyphenyl)-[1,2,4]triazolo[3,4-a]phthalazin-6-yl]-[4-(4-methylpiperazin-1-yl)-phenyl]-amine], in that order: 266 °C and 0.00794 to 0.316 µM.

For `COC(=O)c1cccc(-c2nnc3c4ccccc4c(Nc4ccc(N5CCOCC5)cc4)nn23)c1` [Example 19, 3-[6-(4-Morpholin-4-yl-phenylamino)-[1,2,4]triazolo[3,4-a]phthalazin-3-yl]-benzoic acid methyl ester], in the data set on HUVEC monolayers, the IC50 is 0.00794 to 0.316 µM.

Turning to `c1ccc2c(c1)c(Nc1ccc(N3CCOCC3)cc1)nn1c(-c3ccc(N4CCOCC4)cc3)nnc21` [Example 20, (4-Morpholin-4-yl-phenyl)-[3-(4-morpholin-4-yl-phenyl)-[1,2,4]triazolo[3,4-a]phthalazin-6-yl]-amine], the melting point turned out to be 322 °C. On the same count and under the same terms, for `COC(=O)c1ccc(-c2nnc3c4ccccc4c(Nc4ccc(N5CCOCC5)cc4)nn23)cc1` [Example 22, 4-[6-(4-Morpholin-4-yl-phenylamino)-[1,2,4]triazolo[3,4-a]phthalazin-3-yl]-benzoic acid methyl ester] the value was 303 °C. Regarding `CCOc1cccc(Nc2nn3c(-c4ccc(OC)cc4)nnc3c3ccccc23)c1` [Example 23, (3-Ethoxyphenyl)-[3-(4-methoxyphenyl)-[1,2,4]triazolo[3,4-a]phthalazin-6-yl]-amine], in the data set on HUVEC monolayers, the IC50 was 0.00794 to 0.316 µM. On the same count and under the same terms, for `COc1ccc(-c2nnc3c4ccccc4c(Nc4cccc(OC(F)(F)F)c4)nn23)cc1` [Example 24, [3-(4-Methoxyphenyl)-[1,2,4]triazolo[3,4-a]phthalazin-6-yl]-(3-trifluoromethoxyphenyl)-amine] the value was 0.00794 to 0.316 µM. For `c1ccc(-c2nnc3c4ccccc4c(Nc4ccc(N5CCOCC5)cc4)nn23)cc1` [Example 25, (4-Morpholin-4-ylphenyl)-(3-phenyl-[1,2,4]triazolo[3,4-a]phthalazin-6-yl)-amine], the melting point was determined as 306 °C. Moreover, the IC50 with HUVEC monolayers was 0.00794 to 0.316 µM. Taken in the same sequence, the figures for `Oc1ccccc1-c1nnc2c3ccccc3c(Nc3ccc(N4CCOCC4)cc3)nn12` [Example 26, 2-[6-(4-Morpholin-4-yl-phenylamino)-[1,2,4]triazolo[3,4-a]phthalazin-3-yl]-phenol] were 317 °C and 0.00794 to 0.316 µM. The compound `COc1ccc(-c2nnc3c4ccccc4c(Nc4ccc(Br)cc4)nn23)cc1` [Example 31, (4-Bromo-phenyl)-[3-(4-methoxy-phenyl)-[1,2,4]triazolo[3,4-a]phthalazin-6-yl]-amine] came in with a melting point of 314 to 316 °C. As to `CC1CC(=O)NN=C1c1cc(-n2ccnc2)cs1` (stereo not shown) [Motapizone, reference compound], in the data set on HUVEC monolayers, the “Effect on thrombin-induced hyperpermeability (HRP passage)” value is recorded as “completely blocked”.

On to `COc1ccc(C(=O)Nc2c(Cl)cncc2Cl)cc1OC1CCCC1` [RP73401, reference compound], for which the “Effect on thrombin-induced hyperpermeability (HRP passage)” value in the data set on HUVEC monolayers is reported as “completely blocked”.

On to “ANP: cGMP generator (SLRRSSCFGGRMDRIGAQSGLGCNSFRY; ends and bridges not checked; cysteine pairing not given here; UniProt P01160 124-151, looked up) [reference compound]”, for which, in the data set with HUVEC monolayers (1 mM SNP or 100 nM ANP added to 1 μM RP73401 and 10 μM Motapizone), the “Effect on the block of thrombin-induced hyperpermeability by RP73401 and Motapizone” value is “partially reversed”.
